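Briefly, cells in 96-well plates were exposed to five compound concentrations for 48 h, and endpoints were estimated by linear interpolation. Here, GI50 denotes the concentration required for 50% inhibition of growth.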 Calls of active or inactive are those of the source. No stated cut-off is given here; in the data, active = GI50 up to about 1.1 µM and inactive = higher.

These results are taken from ChEMBL document CHEMBL1201862, “PubChem BioAssay data set” (2004).

Among the test systems are 786-0; ACHN; CCRF-CEM; DU-145; HCT-116; HOP-62; Hs-578T; KM12; NCI-H460; NCI/ADR-RES; OVCAR-4; OVCAR-5; RPMI-8226; SK-MEL-2; SW-620; TK-10; U-251; UO-31; CAKI-1.
Holding throughout (experiment): NCI tumour cell line growth inhibition, 48 h

For `O=c1c2cc([N+](=O)[O-])cnc2sn1-c1ccc([N+](=O)[O-])cc1`, the GI50 is 40.4 µM (inactive) in the test on 786-0; 71.3 µM (inactive) in the test with ACHN; 34.8 µM (inactive) in the test with CCRF-CEM; 45.7 µM (inactive) in the test with DU-145; 23.7 µM (inactive) in the test with HCT-116; 52 µM (inactive) in the test on HOP-62. The GI50 with Hs-578T is 29.2 µM (inactive); in the test on KM12, 26.4 µM (inactive); in the test with NCI-H460 it was 45.1 µM (inactive); in the test with NCI/ADR-RES it was 28.9 µM (inactive); with OVCAR-4 it was 27.7 µM (inactive); in the test on OVCAR-5, 59.2 µM (inactive). Besides, the GI50 with RPMI-8226 is 23.9 µM (inactive); in the test with SK-MEL-2 it was 23.8 µM (inactive); in the test with SW-620, 32.1 µM (inactive); in the test with TK-10, > 100 µM (inactive); with U-251 it was 49.5 µM (inactive); in the test on UO-31 it was 52 µM (inactive).
Consider `O=C1c2cc3c(cc2CC12Cc1cc4c(cc1C2=O)CCCC4)CCCC3`, for which the GI50 is 21.1 µM (inactive) in the test with 786-0; 62.1 µM (inactive) in the test on ACHN; > 100 µM (inactive) with CCRF-CEM; 66.1 µM (inactive) in the test on DU-145; 62.7 µM (inactive) with HCT-116; 24.2 µM (inactive) in the test on HOP-62. Also, the GI50 with Hs-578T is 28.3 µM (inactive); in the test with KM12, > 100 µM (inactive); in the test with NCI-H460, 25.6 µM (inactive); in the test with NCI/ADR-RES it was 24.6 µM (inactive); in the test with OVCAR-4, 18.1 µM (inactive); in the test with OVCAR-5, > 100 µM (inactive). The GI50 in the test with RPMI-8226 was > 100 µM (inactive); in the test with SK-MEL-2, 75.9 µM (inactive); in the test on SW-620, > 100 µM (inactive); in the test on TK-10, 31.8 µM (inactive); in the test on U-251, 30.8 µM (inactive); in the test on UO-31, > 100 µM (inactive).
Take `COc1cc(C2OC[C@@H]3C(=O)OC[C@H]23)cc(O)c1OC` (stereo partly specified): the GI50 in the test with 786-0, in the test on ACHN, in the test on CAKI-1, in the test with CCRF-CEM, in the test with DU-145 and in the test on HCT-116 was > 100 µM (inactive) each time. Besides, the GI50 in the test on Hs-578T, in the test on KM12, in the test on NCI-H460, with NCI/ADR-RES, in the test with OVCAR-4 and in the test on OVCAR-5 was > 100 µM (inactive) in each case. Further, the GI50 with RPMI-8226, with SK-MEL-2, with SW-620, with TK-10, in the test with U-251 and with UO-31 was > 100 µM (inactive) each time.
Turning to `CS/C(Nc1ccccc1)=C1\C(=O)N(c2ccccc2)N=C1C`, the GI50 in the test on 786-0 was > 100 µM (inactive); with CAKI-1, 52 µM (inactive); with CCRF-CEM it was > 100 µM (inactive); in the test with DU-145 it was > 100 µM (inactive); in the test on HCT-116, > 100 µM (inactive); with Hs-578T, > 100 µM (inactive). For the same compound, the GI50 in the test with KM12, with NCI-H460, in the test with NCI/ADR-RES, with OVCAR-4, with OVCAR-5 and in the test on RPMI-8226 was > 100 µM (inactive) in each case. The GI50 in the test with SK-MEL-2, in the test with SW-620, in the test on TK-10, in the test on U-251 and in the test on UO-31 was > 100 µM (inactive) each time.
`Cn1c(=O)c2c(nc3n2CC(C(=O)O)N3)n(C)c1=O` (stereo unspecified): the GI50 in the test with 786-0, in the test with ACHN, in the test with CAKI-1, in the test on DU-145, in the test on HCT-116 and with HOP-62 was > 100 µM (inactive) in each case. For the same compound, the GI50 in the test on Hs-578T, in the test on KM12, with NCI-H460, in the test on NCI/ADR-RES, in the test with OVCAR-4 and in the test on OVCAR-5 was > 100 µM (inactive) each time. Moreover, the GI50 in the test on RPMI-8226, in the test with SK-MEL-2, with SW-620, in the test on TK-10, in the test on U-251 and in the test with UO-31 was > 100 µM (inactive) each time.
`O=C(Nc1ccccc1F)c1cc2ccc(O)cc2o/c1=N\c1cccc(F)c1`: the GI50 in the test with 786-0 was 15 µM (inactive); in the test with ACHN, 9.89 µM (inactive); with CAKI-1, 19.5 µM (inactive); in the test on CCRF-CEM, 3.31 µM (inactive); in the test with DU-145, 15 µM (inactive); in the test on HCT-116, 11.1 µM (inactive). For the same compound, the GI50 was 19 µM (inactive) in the test with HOP-62; 25.6 µM (inactive) in the test on Hs-578T; 12.6 µM (inactive) with KM12; 6.35 µM (inactive) with NCI-H460; 12.8 µM (inactive) in the test with NCI/ADR-RES; 9.86 µM (inactive) in the test on OVCAR-4. Also, the GI50 is 23.7 µM (inactive) in the test with OVCAR-5; 3.24 µM (inactive) in the test on RPMI-8226; 14.3 µM (inactive) in the test with SK-MEL-2; 9.04 µM (inactive) with SW-620; 12.4 µM (inactive) in the test with U-251; 13 µM (inactive) in the test with UO-31.
Consider `CC(=O)OC1CC2CCC1(C)C2(C)C` (stereo unspecified), for which the GI50 in the test on 786-0, with ACHN, in the test on CCRF-CEM, with DU-145, in the test on HCT-116 and with HOP-62 was > 100 µM (inactive) in each case. Also, the GI50 in the test on Hs-578T, in the test with KM12, in the test on NCI-H460, with NCI/ADR-RES, in the test on OVCAR-4 and with OVCAR-5 was > 100 µM (inactive) in each case. In addition, the GI50 in the test on RPMI-8226, with SK-MEL-2, in the test on SW-620, in the test on TK-10, in the test with U-251 and in the test on UO-31 was > 100 µM (inactive) in each case.
With `COC(=O)C1CCC(=S)N1C(C)=O` (stereo unspecified), the GI50 in the test on 786-0, with ACHN, in the test on CAKI-1, in the test on DU-145, in the test on HCT-116 and with HOP-62 was > 100 µM (inactive) in each case. The GI50 in the test with Hs-578T, in the test on KM12, in the test with NCI-H460, with NCI/ADR-RES, with OVCAR-4 and with OVCAR-5 was > 100 µM (inactive) each time. For the same compound, the GI50 in the test with RPMI-8226, with SK-MEL-2, in the test on SW-620, with TK-10, with U-251 and with UO-31 was > 100 µM (inactive) throughout.
As for `CCOC(=O)Nc1c(C#N)[n+]([O-])c2cc(Cl)c(Cl)cc2[n+]1[O-]`, the GI50 with 786-0 was 15.6 µM (inactive); in the test with CAKI-1, 19.4 µM (inactive); in the test on CCRF-CEM, 4.37 µM (inactive); in the test with DU-145, 32.5 µM (inactive); with HCT-116, 14 µM (inactive); with HOP-62 it was 45.7 µM (inactive). For the same compound, the GI50 is 39.5 µM (inactive) with Hs-578T; 18.2 µM (inactive) with KM12; 13.7 µM (inactive) in the test with NCI-H460; 20.7 µM (inactive) in the test on NCI/ADR-RES; 15.3 µM (inactive) with OVCAR-4; 2.15 µM (inactive) with RPMI-8226. The GI50 with SK-MEL-2 was 17.7 µM (inactive); in the test on SW-620, 13.1 µM (inactive); in the test with TK-10, 27.5 µM (inactive); in the test on U-251, 14.3 µM (inactive); in the test on UO-31 it was 16.6 µM (inactive).
Regarding `NS(=O)(=O)c1nnc(NC(=O)/C=C/C(=O)O)s1`, the GI50 in the test on 786-0, in the test with ACHN, with CAKI-1, in the test on DU-145, in the test on HCT-116 and in the test on HOP-62 was > 100 µM (inactive) throughout. The GI50 with Hs-578T, with KM12, in the test with NCI-H460, with NCI/ADR-RES, in the test with OVCAR-4 and with OVCAR-5 was > 100 µM (inactive) each time. Also, the GI50 in the test on RPMI-8226, in the test with SK-MEL-2, in the test with SW-620, in the test with TK-10, in the test on U-251 and in the test on UO-31 was > 100 µM (inactive) each time.
Consider `CC(=O)Nc1ccc(-c2nc3ccccc3s2)cc1Br`, for which the GI50 in the test on 786-0 is 35.6 µM (inactive); with ACHN, 63.4 µM (inactive); with CAKI-1, 25.5 µM (inactive); with CCRF-CEM it was > 100 µM (inactive); in the test with DU-145, 48.2 µM (inactive); in the test with HCT-116, 20.5 µM (inactive). Also, the GI50 in the test with HOP-62 is 7.53 µM (inactive); in the test on Hs-578T, 15.7 µM (inactive); in the test with KM12, > 100 µM (inactive); in the test on NCI-H460, > 92.5 µM (inactive); in the test with NCI/ADR-RES, 73.3 µM (inactive); with OVCAR-4 it was > 38.7 µM (inactive). Besides, the GI50 in the test on RPMI-8226 was > 92.9 µM (inactive); in the test with SK-MEL-2, > 100 µM (inactive); in the test with SW-620, > 100 µM (inactive); in the test on TK-10, 0.142 µM (active); in the test on U-251 it was 46 µM (inactive); with UO-31 it was 25.5 µM (inactive).
